In ChEMBL document CHEMBL3627628, “New macrocyclic analogs of the natural histone deacetylase inhibitor FK228; design, synthesis and preliminary biological evaluation” (Bioorg Med Chem, 2015) one finds IC50, Activity and TGI data, which are given here for 22 compounds.

SMILES strings stand for the structures. Activity calls are given as the source filed them. No cut-off for these calls is given here.

As usually defined, the IC50 is the concentration needed to halve the response being measured.

One series deals with IGROV-1. As to the kind of experiment: cells. To be noted: Homo sapiens, IGROV-1, 72 h.
A further series is described as follows: cells. To be noted: Homo sapiens, IGROV-1, 72 h.
The next series deals with T1, Histone deacetylase 8 (Homo sapiens, UniProt Q9BY41).
T1 sequence (Q9BY41 whole entry): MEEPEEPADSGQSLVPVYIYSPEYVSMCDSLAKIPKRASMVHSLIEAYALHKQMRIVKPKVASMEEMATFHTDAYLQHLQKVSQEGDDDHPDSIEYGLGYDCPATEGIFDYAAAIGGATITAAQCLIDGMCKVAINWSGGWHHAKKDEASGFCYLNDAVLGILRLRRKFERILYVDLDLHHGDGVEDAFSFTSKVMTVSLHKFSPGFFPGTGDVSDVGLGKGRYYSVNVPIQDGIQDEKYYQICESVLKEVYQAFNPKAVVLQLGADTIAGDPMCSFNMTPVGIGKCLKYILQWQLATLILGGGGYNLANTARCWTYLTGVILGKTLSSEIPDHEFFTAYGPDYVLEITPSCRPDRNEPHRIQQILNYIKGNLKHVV
As to the kind of experiment: Inhibition of HDAC8 (unknown origin) incubated for 1 hr by fluor de lys substrate based fluorescence method.

Series [1] has as its target T2, Protein deacetylase HDAC6 (Homo sapiens, UniProt Q9UBN7).
T2 sequence (Q9UBN7 whole entry): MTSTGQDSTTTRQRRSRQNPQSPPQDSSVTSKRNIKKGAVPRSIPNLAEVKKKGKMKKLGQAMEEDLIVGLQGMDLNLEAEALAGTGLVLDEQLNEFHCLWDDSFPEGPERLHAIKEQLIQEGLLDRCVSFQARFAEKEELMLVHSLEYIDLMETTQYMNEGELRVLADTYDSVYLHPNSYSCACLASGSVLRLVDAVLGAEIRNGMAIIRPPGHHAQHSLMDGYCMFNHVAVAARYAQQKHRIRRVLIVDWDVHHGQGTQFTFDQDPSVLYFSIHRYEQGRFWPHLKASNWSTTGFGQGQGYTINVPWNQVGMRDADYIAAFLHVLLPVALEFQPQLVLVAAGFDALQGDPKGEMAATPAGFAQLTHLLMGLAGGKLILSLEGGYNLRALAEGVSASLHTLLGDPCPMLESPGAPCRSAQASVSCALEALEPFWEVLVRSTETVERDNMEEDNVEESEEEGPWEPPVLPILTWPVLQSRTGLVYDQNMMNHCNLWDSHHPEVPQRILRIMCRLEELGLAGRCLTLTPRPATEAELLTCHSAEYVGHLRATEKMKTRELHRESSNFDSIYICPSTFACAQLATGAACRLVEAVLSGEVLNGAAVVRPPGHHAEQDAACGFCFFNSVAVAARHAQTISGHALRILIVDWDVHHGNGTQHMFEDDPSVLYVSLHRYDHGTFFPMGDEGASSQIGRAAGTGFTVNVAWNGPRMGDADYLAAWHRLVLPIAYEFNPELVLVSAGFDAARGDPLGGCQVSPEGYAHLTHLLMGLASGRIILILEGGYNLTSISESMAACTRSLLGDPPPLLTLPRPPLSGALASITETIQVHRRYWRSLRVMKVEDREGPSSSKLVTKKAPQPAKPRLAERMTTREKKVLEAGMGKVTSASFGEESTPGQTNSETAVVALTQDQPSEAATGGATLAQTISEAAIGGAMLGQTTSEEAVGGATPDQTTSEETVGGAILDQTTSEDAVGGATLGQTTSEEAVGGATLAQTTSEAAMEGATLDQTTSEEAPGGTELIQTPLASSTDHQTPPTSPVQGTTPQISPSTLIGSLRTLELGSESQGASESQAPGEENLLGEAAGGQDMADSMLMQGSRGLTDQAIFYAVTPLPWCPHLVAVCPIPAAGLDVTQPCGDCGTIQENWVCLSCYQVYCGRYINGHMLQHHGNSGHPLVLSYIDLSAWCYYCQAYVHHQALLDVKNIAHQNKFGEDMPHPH
As to the kind of experiment: Inhibition of HDAC6 (unknown origin) incubated for 1 hr by fluor de lys substrate based fluorescence method.

For another series, the target named is Histone deacetylase 1 (Homo sapiens, UniProt Q13547). As to the kind of experiment: Inhibition of HDAC1 (unknown origin) incubated for 1 hr by fluor de lys substrate based fluorescence method.
Sequence of Histone deacetylase 1 (Q13547 whole entry): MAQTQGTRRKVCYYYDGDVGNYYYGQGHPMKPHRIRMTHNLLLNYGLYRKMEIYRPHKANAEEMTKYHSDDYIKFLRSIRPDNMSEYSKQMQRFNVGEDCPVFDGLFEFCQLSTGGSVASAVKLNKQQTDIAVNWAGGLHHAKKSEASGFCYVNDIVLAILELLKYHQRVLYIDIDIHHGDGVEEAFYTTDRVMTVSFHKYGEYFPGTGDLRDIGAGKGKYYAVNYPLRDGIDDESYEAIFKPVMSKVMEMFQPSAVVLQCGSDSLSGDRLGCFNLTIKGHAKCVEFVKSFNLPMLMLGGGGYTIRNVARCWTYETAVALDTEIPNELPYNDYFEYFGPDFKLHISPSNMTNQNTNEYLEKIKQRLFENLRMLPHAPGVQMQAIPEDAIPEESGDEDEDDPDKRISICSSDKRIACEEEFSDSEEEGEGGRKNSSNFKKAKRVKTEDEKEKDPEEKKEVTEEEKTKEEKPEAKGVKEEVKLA
Another series relates to Mus musculus. As to the kind of experiment: Toxicity in human HCT116 cells xenografted Swiss mouse at 10 mg/kg, ip dosed starting day 1 post tumor implantation and repeated every 7 days for 4 times. It counts as organism-based, HCT-116. To be noted: in vivo, 168 h. (In general: In xenograft studies the graft and the host belong to different species.)
The next series deals with HCT-116. As to the kind of experiment: Antitumor activity against human HCT116 cells xenografted in Swiss mouse assessed as tumor growth inhibition at 10 mg/kg, ip dosed starting day 1 post tumor implantation and repeated every 7 days for 4 times. It counts as functional, organism-based.

In the case of `CC(C)[C@H]1NC(=O)C[C@H]2/C=C/CCSSC[C@@H](NC1=O)C(=O)N(C)Cc1ccccc1CC(=O)O2`, the IC50 in the series with IGROV-1 and in “cells” was > 10000 nM each time.

For the compound `CC(C)[C@H]1NC(=O)C[C@H]2/C=C/CCSSC[C@@H](NC1=O)C(=O)NCc1ccc(Br)cc1CC(=O)O2`, the IC50 was 2750 nM with IGROV-1 and 380 nM in “cells”.

For the compound `CC(C)[C@@H]1NC(=O)CC(=O)O[C@@H]2/C=C/CCSSC[C@@H](NC(=O)[C@@H](C(C)C)NC(=O)C2)C(=O)N1`, the 50% inhibitory concentration (IC50) in the series with IGROV-1 is 3300 nM; in “cells”, 11000 nM.

Consider `CCCCCCCCSSCC/C=C/[C@@H]1CC(=O)N[C@H](C(C)C)C(=O)N[C@H](C)C(=O)N[C@H](C(C)C)C(=O)NCC(=O)O1`, for which the IC50 against Histone deacetylase 8 stood at 8.01 µM; in series [1], 8.9 µM; with IGROV-1, 700 nM; on Histone deacetylase 1, 820 nM; in “cells”, 30 nM.

`CC(C)[C@H]1NC(=O)C[C@H]2/C=C/CCSSC[C@@H](NC1=O)C(=O)NCc1ccc(Cl)cc1CC(=O)O2`: the concentration for half-maximal inhibition (IC50) with IGROV-1 came to 3500 nM; in the series “cells”, 470 nM.

For the compound `CC(=O)SCC/C=C/[C@@H]1CC(=O)N[C@H](C(C)C)C(=O)N[C@H](Cc2cn(C)cn2)C(=O)N[C@H](C(C)C)c2cn(nn2)CC(=O)O1`, the IC50 was found to be 1.62 µM against Histone deacetylase 8; 9.89 µM in series [1]; 10600 nM in the series on IGROV-1; 1040 nM against Histone deacetylase 1; 1500 nM in “cells”.

Consider `CC(C)[C@H]1NC(=O)C[C@H]2/C=C/CCSSC[C@@H](NC1=O)C(=O)Nc1cccc(c1)CC(=O)O2`, for which the 50% inhibitory concentration (IC50) in the series on IGROV-1 and in “cells” was > 10000 nM in each case.

Take `CCCCCCCC(=O)SCC/C=C/[C@@H]1CC(=O)N[C@H](C(C)C)C(=O)N[C@H](C)C(=O)N[C@H](C(C)C)C(=O)NCC(=O)O1`: the IC50 came to 14.3 µM at Histone deacetylase 8; 18.3 µM in series [1]; 230 nM in the series on IGROV-1; 1270 nM against Histone deacetylase 1; 9 nM in the series “cells”.

In the case of `CC(C)[C@H]1NC(=O)C[C@H]2/C=C/CCSSC[C@@H](NC1=O)C(=O)NCc1[nH]c3ccccc3c1CC(=O)O2`, the values for the concentration for half-maximal inhibition (IC50) with IGROV-1 and in “cells” were 2810 nM and 780 nM, respectively.

`C=C(C)[C@H]1NC(=O)[C@H]2CSSCC/C=C/[C@H](CC(=O)N[C@H](C)C(=O)N2)OC(=O)C[C@@H]1O` [SPIRUCHOSTATIN A]: the half-inhibitory concentration (IC50) is 25 nM in the series with IGROV-1 and 15 nM in “cells”.

Regarding `CC(=O)SCC/C=C/[C@@H]1CC(=O)N[C@H](C(C)C)C(=O)N[C@H](Cc2ccccc2)C(=O)N[C@H](C(C)C)c2cn(nn2)CC(=O)O1`, the IC50 at Histone deacetylase 8 is 1.8 µM; in series [1], 8.67 µM; in the series on IGROV-1, 3100 nM; against Histone deacetylase 1, 1050 nM; in the series “cells”, 190 nM.

On to `CC(C)[C@H]1NC(=O)C[C@H]2/C=C/CCSSC[C@@H](NC1=O)C(=O)N[C@H](C(C)C)c1cn(nn1)CC(=O)O2`, for which the IC50 amounted to 400 nM in the series with IGROV-1 and 110 nM in the series “cells”.

Consider `CC(C)[C@H]1NC(=O)C[C@H]2/C=C/CCSSC[C@@H](NC1=O)C(=O)NC1CCC(CC1)C(=O)O2`, for which the IC50 in the series with IGROV-1 was determined as 7000 nM; in “cells”, 1500 nM.

Take `CC(C)[C@H]1NC(=O)C[C@H]2/C=C/CCSSC[C@@H](NC1=O)C(=O)NCc1cc(Br)ccc1CC(=O)O2`: the half-maximal inhibitory concentration (IC50) is 2000 nM with IGROV-1 and 2500 nM in the series “cells”.

Consider `CC(=O)SCC/C=C/[C@@H]1CC(=O)N[C@H](C(C)C)C(=O)N[C@H](Cc2ccc(O)cc2)C(=O)N[C@H](C(C)C)c2cn(nn2)CC(=O)O1`, for which the 50% inhibitory concentration (IC50) with IGROV-1 was > 10000 nM; in “cells”, 2200 nM.

As to `CC(C)[C@H]1NC(=O)C[C@H]2/C=C/CCSSC[C@@H](NC1=O)C(=O)NCc1cc(-c3ccccc3)ccc1CC(=O)O2`, the Activity entry in the series with Mus musculus is “Non-toxic”. Moreover, the 50% inhibitory concentration (IC50) in the series with IGROV-1 turned out to be 600 nM; in “cells” it was 200 nM. The TGI result in the series with HCT-116 was “Active”.

Take `CC(=O)SCC/C=C/[C@@H]1CC(=O)N[C@H](Cc2ccccc2)C(=O)N[C@H](C)C(=O)N[C@H](C(C)C)c2cn(nn2)CC(=O)O1`: the IC50 in the series on IGROV-1 is 970 nM; in “cells” it was 120 nM.

For the compound `CC(C)[C@H]1NC(=O)C[C@H]2/C=C/CCSSC[C@@H](NC1=O)C(=O)Nc1ccccc1C(=O)NCC(=O)O2`, the IC50 in the series with IGROV-1 and in “cells” was > 10000 nM in each case.

Turning to `CC(C)[C@H]1NC(=O)C[C@H]2/C=C/CCSSC[C@@H](NC1=O)C(=O)NCc1ccccc1CC(=O)O2`, the IC50 was determined as 2500 nM with IGROV-1 and 400 nM in the series “cells”.

Regarding `CC[C@H]1NC(=O)[C@@H](C(C)C)NC(=O)C[C@@H](/C=C/CCSC(C)=O)OC(=O)CNC(=O)[C@@H](C(C)C)NC1=O`, the results for the IC50 in the series on IGROV-1 and in the series “cells” were 6000 nM and 270 nM, respectively.

As to `CC(C)[C@H]1NC(=O)C[C@H]2/C=C/CCSSC[C@@H](NC1=O)C(=O)NCc1cc(OC(F)(F)F)ccc1CC(=O)O2`, the IC50 in the series with IGROV-1 was 510 nM; in the series “cells”, 180 nM.

`CC(C)[C@H]1NC(=O)C[C@H]2/C=C/CCSSC[C@@H](NC1=O)C(=O)N1CCC(CC1)CC(=O)O2`: the IC50 in the series with IGROV-1 and in “cells” was > 10000 nM in each case.
